The values that follow come from patent publication US20240383870A1, “HETEROCYCLIC ALDEHYDE TRAPPING COMPOUNDS AND USES THEREOF” (Aldeyra Therapeutics, Inc., priority 2021, published 2024).

Holding throughout (type): in vivo
What all share (conditions): 200 mpk PO; LPS-challenged mice, plasma at 6.5 h; unpaired t-test vs vehicle

The subject of one assay is IL-6. The experiment in a line: Acute LPS-induced sepsis in C57BL/6 mice: IL-6 cytokine detection assay. An excerpt:
FIG. 11 is a graph showing the results of an IL-6 cytokine detection assay in samples collected from mouse subjects after administration of compounds of the present disclosure.
(§1) The primary objective of this study was to collect plasma samples of lipopolysaccharide (LPS) challenged C57BL/6 mice after dose of test compounds to provide a cytokine profile as impacted by prophylactic treatments. This study models acute sepsis, which is a systemic inflammatory syndrome initiated by Gram-negative and Gram-positive bacteria and fungi which infect the lungs, abdomen, bloodstream, and renal or genitourinary tracts. Sepsis patients ultimately die of multiorgan failure which is caused by extensive tissue hypo-oxygenation due to ongoing microvascular leakage, disseminated intravascular coagulation, compromised energy production, and metabolic alterations. Sepsis is characterized by an early systemic inflammatory response phase featuring symptoms, such as tachycardia, fever, hyperventilation, and activation of the complement and coagulation cascades. However, it is now appreciated that a compensatory anti-inflammatory response phase follows, characterized by neuroendocrine-mediated immunosuppression. Since these processes are the result of interaction between cells of inflammation and organs, investigation of the treatment of this syndrome requires the use of intact animal models. The use of ten mice per group allows useful statistical modelling of the results.
(§2) For the data shown in Table 2A, 103 mice (female, 18-22 gram, C57BL/6) were purchased from ENVIGO. The mice were housed in 20 cages of 5 mice per cage with 1 cage of 3 mice as extra. The cages had filter tops and autoclaved bedding, and the animals were placed in quarantine with daily inspection. The treatment groups are detailed in Table 2A below. 10 mice were included in each group. The mice were dosed by oral gavage (PO) at 10 ml/kg as per the table below. MC=methyl cellulose.
(§3) For the data shown in Table 2B, 185 mice (female, 18-22 gram, C57BL/6) were purchased from ENVIGO. The mice were housed in 37 cages of 5 mice per cage. The cages had filter tops and autoclaved bedding, and the animals were placed in quarantine with daily inspection. The treatment groups are detailed in Table 2B below. 10 mice were included in each group. The mice were dosed by oral gavage (P0) at 10 ml/kg as per the table below. MC=methyl cellulose.
(§4) At T=0 h, the mice were dosed with one of the test compounds as described in the above table.
(§5) At T=0.5 h, the mice were injected IP with 1.5 mg/kg […] (Sigma).
(§6) At T=6.5 h, all mice were anesthetized and exsanguinated into pre-chilled EDTA-treated tubes. […]
(§7) A 32-plex cytokine panel was obtained from Eve Technologies. Each cytokine was assessed based against a 7 point curve range in duplicate. […]

For the next assay, the system named is KC. The experiment in a line: Acute LPS-induced sepsis in C57BL/6 mice: KC cytokine detection assay.
Text: FIG. 20 is a graph showing the results of a KC cytokine detection assay in samples collected from mouse subjects after administration of compounds of the present disclosure.
as §1, §2, §3, §4, §5
(§8) At T=6.5 h, all mice were anesthetized and exsanguinated into pre-chilled EDTA-treated tubes. The blood was processed to plasma which was stored in labeled 0.5 polypropylene snap-cap tubes (0.5 mL Eppendorf Safe-Lock Tubes (Fisher Scientific) at −80° C.
(§9) Preparation of vehicle: 1.0 gram of methyl cellulose (Sigma) was dissolved in 200 mL of water (USP purified) to make a solution of 0.5% methyl cellulose in water. Preparation of LPS solution: 6 mg of LPS (from Escherichia Coli 055:B5, Cat #L2880, Sigma Lot #057m4013) was dissolved in 20 ml of saline to give a LPS solution of 0.3 mg/ml. All mice were injected with 5 ml/kg (1.5 mg/kg) at the scheduled time by intraperitoneal injection.
(§10) A 32-plex cytokine panel was obtained from Eve Technologies. Each cytokine was assessed based against a 7 point curve range in duplicate. The average of the two replicate analyses was used for statistics. Unpaired t-tests were performed using Excel™ contrasting vehicle against each treatment group. One star indicates P<0.05. Two stars indicates P<0.01. Three stars indicates P<0.001. Four stars indicates P<0.0001. Most, but not all, statistically significant results are indicated with star(s).

The next assay deals with MCP-1(CCL2). As to the kind of experiment: Acute LPS-induced sepsis in C57BL/6 mice: MCP-1(CCL2) cytokine detection assay.
For another assay, the system named is M-CSF (CSF1). The experiment in a line: Acute LPS-induced sepsis in C57BL/6 mice: M-CSF (CSF1) cytokine detection assay.
Text: FIG. 24 is a graph showing the results of an M-CSF (CSF1) cytokine detection assay in samples collected from mouse subjects after administration of compounds of the present disclosure. M-CSF causes hematopoietic stem cells to differentiate into macrophages.
as §1, §2, §3, §4, §5, §8, §9, §10

A further assay has as its system TNFα. As to the kind of experiment: Acute LPS-induced sepsis in C57BL/6 mice: TNFα cytokine detection assay.
Text: FIG. 29 is a graph showing the results of a TNFα cytokine detection assay in samples collected from mouse subjects after administration of compounds of the present disclosure.
as §1
(§11) For the data shown in Table 2A, 103 mice (female, 18-22 gram, C57BL/6) were purchased from ENVIGO. The mice were housed in 20 cages of 5 mice per cage with 1 cage of 3 mice as extra. The cages had filter tops and autoclaved bedding, and the animals were placed in quarantine with daily inspection. The treatment groups are detailed in Table 2A below. 10 mice were included in each group. The mice were dosed by oral gavage (PO) at 10 ml/kg as per the table below. MC=methyl cellulose. […]
as §7

Another assay deals with eotaxin. The experiment in a line: Acute LPS-induced sepsis in C57BL/6 mice: eotaxin cytokine detection assay.
The next assay deals with IFNγ. As to the kind of experiment: Acute LPS-induced sepsis in C57BL/6 mice: IFNγ cytokine detection assay.
The test system of the next assay is IL-1α. As to the kind of experiment: Acute LPS-induced sepsis in C57BL/6 mice: IL-1α cytokine detection assay.
Text: FIG. 5 is a graph showing the results of an IL-1α cytokine detection assay in samples collected from mouse subjects after administration of compounds of the present disclosure.
as §1, with “Since these processes are the result of interaction between cells of inflammation and organs, investigation of the treatment of this syndrome requires the use of intact animal models. The use of ten mice per group allows useful statistical modelling of the results.” left out
as §7

A further assay has as its system IL-3. The experiment in a line: Acute LPS-induced sepsis in C57BL/6 mice: IL-3 cytokine detection assay.
In a further assay the test system is IL-9. As to the kind of experiment: Acute LPS-induced sepsis in C57BL/6 mice: IL-9 cytokine detection assay.
Text: FIG. 13 is a graph showing the results of an IL-9 cytokine detection assay in samples collected from mouse subjects after administration of compounds of the present disclosure.
as §1, §11, §7

In another assay the test system is IL-10. As to the kind of experiment: Acute LPS-induced sepsis in C57BL/6 mice: IL-10 cytokine detection assay.
The subject of the next assay is IL-13. The experiment in a line: Acute LPS-induced sepsis in C57BL/6 mice: IL-13 cytokine detection assay.
Text: FIG. 17 is a graph showing the results of an IL-13 cytokine detection assay in samples collected from mouse subjects after administration of compounds of the present disclosure.
as §1, §2, §3, §4, §5, §8, §9
A 32-plex cytokine panel was obtained from Eve Technologies. Each cytokine was assessed based against a 7 point curve range in duplicate. The average of the two replicate analyses was used for statistics. […]

The subject of another assay is IL-15. The experiment in a line: Acute LPS-induced sepsis in C57BL/6 mice: IL-15 cytokine detection assay.
The subject of the next assay is IL-17. The experiment in a line: Acute LPS-induced sepsis in C57BL/6 mice: IL-17 cytokine detection assay.
Text: FIG. 19 is a graph showing the results of an IL-17 cytokine detection assay in samples collected from mouse subjects after administration of compounds of the present disclosure.
as §1
For the data shown in Table 2A, 103 mice (female, 18-22 gram, C57BL/6) were purchased from ENVIGO. The mice were housed in 20 cages of 5 mice per cage with 1 cage of 3 mice as extra. The cages had filter tops and autoclaved bedding, and the animals were placed in quarantine with daily inspection. The treatment groups are detailed in Table 2A below. 10 mice were included in each group. […] MC=methyl cellulose.
as §3, §4, §5, §6, §7

Assay [1] deals with leukemia inhibitory factor (LIF). The experiment in a line: Acute LPS-induced sepsis in C57BL/6 mice: leukemia inhibitory factor (LIF) cytokine detection assay.
Text: FIG. 21 is a graph showing the results of a leukemia inhibitory factor (LIF) cytokine detection assay in samples collected from mouse subjects after administration of compounds of the present disclosure. LIF is an interleukin 6 class cytokine that affects cell growth by inhibiting differentiation.
as §1, §2, §3, §4, §5, §8, §9, §7

Another assay deals with LIX (CXCL5). As to the kind of experiment: Acute LPS-induced sepsis in C57BL/6 mice: LIX (CXCL5) cytokine detection assay.
Text: FIG. 22 is a graph showing the results of a LIX (CXCL5) cytokine detection assay in samples collected from mouse subjects after administration of compounds of the present disclosure.
as §1, with “Since these processes are the result of interaction between cells of inflammation and organs, investigation of the treatment of this syndrome requires the use of intact animal models. The use of ten mice per group allows useful statistical modelling of the results.” left out
as §7

The subject of the next assay is VEGF. As to the kind of experiment: Acute LPS-induced sepsis in C57BL/6 mice: VEGF cytokine detection assay.
Text: FIG. 30 is a graph showing the results of a VEGF cytokine detection assay in samples collected from mouse subjects after administration of compounds of the present disclosure.
as §1, with “Since these processes are the result of interaction between cells of inflammation and organs, investigation of the treatment of this syndrome requires the use of intact animal models. The use of ten mice per group allows useful statistical modelling of the results.” left out
as §7

Turning to `COc1ccc2c(c1)NC(=O)[C@@H](CO)N2` [Compound I-7, (R)-3-(Hydroxymethyl)-7-methoxy-3,4-dihydroquinoxalin-2(1H)-one], the “IL-6: significant cytokine change vs. vehicle” value in the assay with IL-6 is “* (One star indicates P<0.05)”. The “KC: significant cytokine change vs. vehicle” value in the assay with KC is recorded as “* (One star indicates P<0.05)”. Further, the “MCP-1: significant cytokine change vs. vehicle” value with MCP-1(CCL2) is “* (One star indicates P<0.05)”. The “M-CSF: significant cytokine change vs. vehicle” value in the assay on M-CSF (CSF1) is reported as “*** (Three stars indicates P<0.001)”. In the assay on TNFα, the “TNFa: significant cytokine change vs. vehicle” value was “* (One star indicates P<0.05)”.

Take `CC(O)(c1sc2cc(C(F)(F)F)ccc2c1N)C(F)(F)F` (stereo not shown) [Compound I-3, 2-(3-amino-6-(trifluoromethyl)benzo[b]thiophen-2-yl)-1,1,1-trifluoropropan-2-ol]: the “Eotaxin: significant cytokine change vs. vehicle” value with eotaxin is “** (Two stars indicates P<0.01)”. In addition, the “IFNy: significant cytokine change vs. vehicle” value in the assay on IFNγ is recorded as “**** (Four stars indicates P<0.0001)”. Besides, the “IL-1a: significant cytokine change vs. vehicle” value in the assay with IL-1α is reported as “*** (Three stars indicates P<0.001)”. In addition, the “IL-3: significant cytokine change vs. vehicle” value with IL-3 is recorded as “**** (Four stars indicates P<0.0001)”. Also, the “IL-6: significant cytokine change vs. vehicle” value in the assay with IL-6 is given as “** (Two stars indicates P<0.01)”. Also, the “IL-9: significant cytokine change vs. vehicle” value with IL-9 is listed as “*** (Three stars indicates P<0.001)”. The “IL-10: significant cytokine change vs. vehicle” value with IL-10 is listed as “* (One star indicates P<0.05)”. The “IL-13: significant cytokine change vs. vehicle” value in the assay with IL-13 is “*** (Three stars indicates P<0.001)”. The “IL-15: significant cytokine change vs. vehicle” value in the assay on IL-15 is recorded as “** (Two stars indicates P<0.01)”. The “IL-17: significant cytokine change vs. vehicle” value with IL-17 was “*** (Three stars indicates P<0.001)”. For the same compound, the “KC: significant cytokine change vs. vehicle” value in the assay on KC is given as “** (Two stars indicates P<0.01)”. For the same compound, the “LIF: significant cytokine change vs. vehicle” value in assay [1] is reported as “* (One star indicates P<0.05)”. Besides, the “LIX: significant cytokine change vs. vehicle” value with LIX (CXCL5) was “* (One star indicates P<0.05)”. In addition, in the assay on MCP-1(CCL2), the “MCP-1: significant cytokine change vs. vehicle” value is “**** (Four stars indicates P<0.0001)”. Also, in the assay with M-CSF (CSF1), the “M-CSF: significant cytokine change vs. vehicle” value is “** (Two stars indicates P<0.01)”. In addition, the “TNFa: significant cytokine change vs. vehicle” value with TNFα is recorded as “** (Two stars indicates P<0.01)”. Also, in the assay on VEGF, the “VEGF: significant cytokine change vs. vehicle” value is reported as “* (One star indicates P<0.05)”.
